According to patent US10174047B2, “Thienodiazepine derivatives or pharmaceutically acceptable salts thereof, and pharmaceutical composition including the same as an active ingredient” (Industry-University Cooperation Foundation Hanyang …, priority 2015, dated 2019):
Read-outs that look alike come from different tables or passages of the source.

Columns and labels:
[1] = tested on: A375P cell line (melanoma); experiment: Proliferation inhibition activity against A375P cell line (MTT assay); assay type: cell-based; details: A375P melanoma cells; for GI50: MTT assay
Description: Measurement of Proliferation Inhibition Activity Against A375P Cell Line (Melanoma)
An A375P cell line purchased from ATCC was cultured in a DMEM medium [containing 10% FBS, 1% penicillin/streptomycin] at 37° C. in the presence of 5% CO2. The cultured A375P cell line was taken using 0.05% trypsin-0.02% EDTA, and seeded into a 96-well plate at a density of 5×10^3 cells per well.
Cell viability was measured using an MTT [3-(4,5-dimethylthiazol-2-yl)-2,5-diphenyltetrazolium bromide] assay (CellTiter 96 Assay, Promega) as follows. 15 μl of dye was placed per well, the cells were cultured for 2 hours, and then treated with 100 μl of a stop solution, and after 24 hours, absorbance was measured. One day after plating, they were treated with compounds. For treatment with compounds, […] of stock was prepared, and serially diluted to one-third in dimethyl sulfoxide (DMSO) to prepare a 12-point test compound plate, and 0.5 μl was added (final concentration DMSO 0.5%).
In the following Tables 1 to 3, in a case of GI50 being 10 to 30 μM, it was indicated as (+), in a case of it being 1 to 10 μM, it was indicated as (++), and in case of being less than 1 μM, it was indicated as (+++).

c-Src = c-Src (Homo sapiens, UniProt P12931); experiment: Kinase panel screening; assay type: biochemical
Description: (§1) Using the compound of Example 43 (1-(4-((4-ethylpiperazine-1-yl)methyl)-3-(trifluoromethyl)phenyl)-3-(4-(2-oxo-2,3-dihydro-1H-thieno[3,4-b][1,4]diazepine-4-yl)phenyl)urea), kinase panel screening was conducted against 35 kinds of kinases at a concentration of 10 μM, and the results are shown in the following Tables 4 and 5 (percentages of enzymatic inhibitions exerted by compound 43 (10 μM) on 30 selected protein kinases).
(§2) Further, the IC50 values (50% inhibition concentration) of the compound of Example 43 against various kinases were calculated using GraphPad Prism 4.0 software, and the results are shown in the following Table 6.

FGFR2 = FGFR2 (Homo sapiens, UniProt P21802); experiment: Kinase panel screening; assay type: biochemical; details: FGFR2, 10 μM
Description: as §1, §2

PDGFRa = PDGFRa (Homo sapiens, UniProt P16234); experiment: Kinase panel screening; assay type: biochemical
PDGFRa, sequence (P16234 24-1089, species assumed): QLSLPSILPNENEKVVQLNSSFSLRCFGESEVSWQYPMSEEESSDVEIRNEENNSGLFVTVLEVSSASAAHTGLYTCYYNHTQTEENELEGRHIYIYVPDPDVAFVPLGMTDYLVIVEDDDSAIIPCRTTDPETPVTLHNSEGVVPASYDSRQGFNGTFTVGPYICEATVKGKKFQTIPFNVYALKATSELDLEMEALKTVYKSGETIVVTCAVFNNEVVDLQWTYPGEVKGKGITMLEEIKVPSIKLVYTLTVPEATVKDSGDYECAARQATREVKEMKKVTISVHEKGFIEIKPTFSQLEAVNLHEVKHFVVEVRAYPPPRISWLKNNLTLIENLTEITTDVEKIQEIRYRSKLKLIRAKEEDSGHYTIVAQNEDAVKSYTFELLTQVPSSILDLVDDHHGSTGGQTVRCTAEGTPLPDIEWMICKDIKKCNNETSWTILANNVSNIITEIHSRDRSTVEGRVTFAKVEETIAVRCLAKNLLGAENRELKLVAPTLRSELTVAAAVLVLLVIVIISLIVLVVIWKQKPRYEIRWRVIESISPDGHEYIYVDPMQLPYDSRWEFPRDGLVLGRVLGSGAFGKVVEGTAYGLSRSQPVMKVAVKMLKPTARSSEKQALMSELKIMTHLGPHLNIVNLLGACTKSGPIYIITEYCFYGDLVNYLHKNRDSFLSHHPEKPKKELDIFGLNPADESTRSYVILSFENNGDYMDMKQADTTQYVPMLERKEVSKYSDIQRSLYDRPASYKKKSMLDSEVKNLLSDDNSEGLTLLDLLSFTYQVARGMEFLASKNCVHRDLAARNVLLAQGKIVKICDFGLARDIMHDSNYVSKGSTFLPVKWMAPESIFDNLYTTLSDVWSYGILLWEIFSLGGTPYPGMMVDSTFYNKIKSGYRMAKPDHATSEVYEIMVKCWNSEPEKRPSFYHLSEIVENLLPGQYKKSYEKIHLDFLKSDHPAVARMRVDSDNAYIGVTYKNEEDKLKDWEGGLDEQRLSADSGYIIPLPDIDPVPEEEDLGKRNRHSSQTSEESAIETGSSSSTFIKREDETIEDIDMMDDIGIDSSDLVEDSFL
Description: as §1, §2

LYN = LYN (Homo sapiens, UniProt P07948); experiment: Kinase panel screening; assay type: biochemical
Description: as §1, §2

MEK1 = MEK1 (Homo sapiens, UniProt Q02750); experiment: Kinase panel screening; assay type: biochemical; details: MEK1, 10 μM
Description: as §1, §2

IGF1R = IGF1R (Homo sapiens, UniProt P08069); experiment: Kinase panel screening; assay type: biochemical
Description: as §1, §2

FMS = FMS (Homo sapiens, UniProt P07333); experiment: Kinase panel screening; assay type: biochemical
Description: as §1, §2

FAK/PTK2 = FAK/PTK2 (Homo sapiens, UniProt Q05397); experiment: Kinase panel screening; assay type: biochemical; details: FAK/PTK2, 10 μM
FAK/PTK2, sequence (Q05397 whole entry): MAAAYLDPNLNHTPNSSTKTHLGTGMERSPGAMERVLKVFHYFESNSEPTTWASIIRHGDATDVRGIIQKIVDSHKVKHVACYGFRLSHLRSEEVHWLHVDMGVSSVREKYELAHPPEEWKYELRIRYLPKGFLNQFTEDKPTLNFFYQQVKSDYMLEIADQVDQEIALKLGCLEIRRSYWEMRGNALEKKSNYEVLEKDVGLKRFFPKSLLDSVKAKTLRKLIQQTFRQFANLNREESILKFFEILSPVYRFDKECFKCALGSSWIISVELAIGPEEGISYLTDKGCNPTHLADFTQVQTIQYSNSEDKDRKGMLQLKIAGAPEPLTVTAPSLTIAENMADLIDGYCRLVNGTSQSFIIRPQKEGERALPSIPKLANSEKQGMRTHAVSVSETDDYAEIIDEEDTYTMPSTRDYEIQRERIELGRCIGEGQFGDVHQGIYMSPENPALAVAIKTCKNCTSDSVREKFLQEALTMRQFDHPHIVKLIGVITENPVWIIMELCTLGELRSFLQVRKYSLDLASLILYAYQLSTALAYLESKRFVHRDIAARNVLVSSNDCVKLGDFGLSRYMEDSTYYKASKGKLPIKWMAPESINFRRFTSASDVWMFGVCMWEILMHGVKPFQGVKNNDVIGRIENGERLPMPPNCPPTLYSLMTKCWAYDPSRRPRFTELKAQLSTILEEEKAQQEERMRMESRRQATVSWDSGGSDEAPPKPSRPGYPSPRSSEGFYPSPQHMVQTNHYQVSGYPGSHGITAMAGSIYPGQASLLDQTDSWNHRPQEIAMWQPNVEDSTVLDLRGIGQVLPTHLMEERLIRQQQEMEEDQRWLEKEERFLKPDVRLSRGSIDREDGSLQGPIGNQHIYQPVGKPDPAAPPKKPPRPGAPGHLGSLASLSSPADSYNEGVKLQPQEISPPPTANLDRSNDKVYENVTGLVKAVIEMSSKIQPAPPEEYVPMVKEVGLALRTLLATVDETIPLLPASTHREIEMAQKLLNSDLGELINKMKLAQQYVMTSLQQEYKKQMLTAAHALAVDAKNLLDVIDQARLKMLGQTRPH
Description: as §1, §2

CDK2/cyclin E = CDK2/cyclin E (Homo sapiens, UniProt P24941); experiment: Kinase panel screening; assay type: biochemical
Description: as §1, §2

c-Kit = c-Kit (Homo sapiens, UniProt P10721); experiment: Kinase panel screening; assay type: biochemical
Description: as §1, §2

FLT3 = FLT3 (Homo sapiens, UniProt P36888); experiment: Kinase panel screening; assay type: biochemical; details: FLT3, 10 μM
Description: as §1, §2

CDK1/cyclin B = CDK1/cyclin B (Homo sapiens, UniProt P06493); experiment: Kinase panel screening; assay type: biochemical
Description: as §1, §2

c-MET = c-MET (Homo sapiens, UniProt P08581); experiment: Kinase panel screening; assay type: biochemical
Description: as §1, §2

BRAF = BRAF (Homo sapiens, UniProt P15056); experiment: Kinase panel screening; assay type: biochemical
BRAF, sequence (P15056 whole entry): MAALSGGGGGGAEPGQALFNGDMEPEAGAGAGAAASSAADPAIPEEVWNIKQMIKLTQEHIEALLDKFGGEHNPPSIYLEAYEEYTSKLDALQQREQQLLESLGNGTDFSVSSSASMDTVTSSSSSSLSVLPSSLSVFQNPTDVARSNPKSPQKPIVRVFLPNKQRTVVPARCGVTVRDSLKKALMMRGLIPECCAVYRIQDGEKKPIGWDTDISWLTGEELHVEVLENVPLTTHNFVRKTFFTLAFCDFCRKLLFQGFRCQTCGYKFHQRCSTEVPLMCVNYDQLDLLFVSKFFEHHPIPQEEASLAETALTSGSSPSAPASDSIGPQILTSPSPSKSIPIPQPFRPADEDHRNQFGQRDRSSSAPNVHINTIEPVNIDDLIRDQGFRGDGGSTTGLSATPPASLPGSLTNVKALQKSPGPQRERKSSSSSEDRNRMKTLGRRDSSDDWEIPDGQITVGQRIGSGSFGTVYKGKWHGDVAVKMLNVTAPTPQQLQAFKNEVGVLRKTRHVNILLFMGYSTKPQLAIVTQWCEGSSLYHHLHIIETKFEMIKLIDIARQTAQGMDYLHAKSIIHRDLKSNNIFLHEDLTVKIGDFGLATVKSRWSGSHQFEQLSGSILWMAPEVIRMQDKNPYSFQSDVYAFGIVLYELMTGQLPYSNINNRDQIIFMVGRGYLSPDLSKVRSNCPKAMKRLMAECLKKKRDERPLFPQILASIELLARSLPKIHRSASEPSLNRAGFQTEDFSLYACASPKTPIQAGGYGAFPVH
Description: as §1, §2

AKT1 = AKT1 (Homo sapiens, UniProt P31749); experiment: Kinase panel screening; assay type: biochemical; details: AKT1, 10 μM
Description: as §1, §2

LCK = LCK (Homo sapiens, UniProt P06239); experiment: Kinase panel screening; assay type: biochemical
Description: as §1, §2

TIE2/TEK = TIE2/TEK (Homo sapiens, UniProt Q02763); experiment: Kinase panel screening; assay type: biochemical
Description: as §1, §2

EGFR = EGFR (Homo sapiens, UniProt P00533); experiment: Kinase panel screening; assay type: biochemical
Description: as §1, §2

RET = RET (Homo sapiens, UniProt P07949); experiment: Kinase panel screening; assay type: biochemical
Description: as §1, §2

FGFR1 = FGFR1 (Homo sapiens, UniProt P11362); experiment: Kinase panel screening; assay type: biochemical; details: FGFR1, 10 μM
Description: as §1, §2

BRAF (V599E) = BRAF (V599E) (Homo sapiens, UniProt P15056, V600E); experiment: Kinase panel screening; assay type: biochemical
BRAF (V599E), sequence (P15056 whole entry V600E): as the sequence (P15056 whole entry) above, with V600E counted along it
Description: as §1, §2

ROS/ROS1 = ROS/ROS1 (Homo sapiens, UniProt P08922); experiment: Kinase panel screening; assay type: biochemical; details: ROS/ROS1, 10 μM
Description: as §1, §2

ERK1 = ERK1 (Homo sapiens, UniProt P27361); experiment: Kinase panel screening; assay type: biochemical; details: ERK1, 10 μM
Description: as §1, §2

P38a/MAPK14 = P38a/MAPK14 (Homo sapiens, UniProt Q16539); experiment: Kinase panel screening; assay type: biochemical; details: P38a/MAPK14, 10 μM
Description: as §1, §2

RAF1 = RAF1 (Homo sapiens, UniProt P04049); experiment: Kinase panel screening; assay type: biochemical; details: RAF1, 10 μM
RAF1, sequence (P04049 whole entry): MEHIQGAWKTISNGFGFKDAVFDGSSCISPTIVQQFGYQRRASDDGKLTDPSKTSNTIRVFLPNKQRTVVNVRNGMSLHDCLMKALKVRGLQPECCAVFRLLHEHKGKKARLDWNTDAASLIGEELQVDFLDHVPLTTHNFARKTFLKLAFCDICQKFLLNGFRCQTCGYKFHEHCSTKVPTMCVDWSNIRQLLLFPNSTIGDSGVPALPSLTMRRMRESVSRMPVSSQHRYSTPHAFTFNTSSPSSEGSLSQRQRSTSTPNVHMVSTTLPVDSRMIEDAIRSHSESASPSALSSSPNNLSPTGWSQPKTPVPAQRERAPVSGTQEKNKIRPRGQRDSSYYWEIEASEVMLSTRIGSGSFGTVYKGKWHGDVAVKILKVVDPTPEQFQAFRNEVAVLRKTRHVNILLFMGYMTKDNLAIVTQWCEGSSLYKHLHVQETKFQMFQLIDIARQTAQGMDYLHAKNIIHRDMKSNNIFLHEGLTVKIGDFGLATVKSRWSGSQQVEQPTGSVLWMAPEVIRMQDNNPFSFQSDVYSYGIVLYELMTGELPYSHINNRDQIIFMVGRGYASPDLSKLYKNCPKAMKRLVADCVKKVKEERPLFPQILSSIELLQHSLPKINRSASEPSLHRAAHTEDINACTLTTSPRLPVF
Description: as §1, §2

ITK = ITK (Homo sapiens, UniProt Q08881); experiment: Kinase panel screening; assay type: biochemical
Description: as §1, §2

FGFR3 = FGFR3 (Homo sapiens, UniProt P22607); experiment: Kinase panel screening; assay type: biochemical; details: FGFR3, 10 μM
Description: as §1, §2

Aurora A = Aurora A (Homo sapiens, UniProt O14965); experiment: Kinase panel screening; assay type: biochemical
Description: as §1, §2

FLT1/VEGFR1 = FLT1/VEGFR1 (Homo sapiens, UniProt P17948); experiment: Kinase panel screening; assay type: biochemical; details: FLT1/VEGFR1, 10 μM
FLT1/VEGFR1, sequence (P17948 27-1338): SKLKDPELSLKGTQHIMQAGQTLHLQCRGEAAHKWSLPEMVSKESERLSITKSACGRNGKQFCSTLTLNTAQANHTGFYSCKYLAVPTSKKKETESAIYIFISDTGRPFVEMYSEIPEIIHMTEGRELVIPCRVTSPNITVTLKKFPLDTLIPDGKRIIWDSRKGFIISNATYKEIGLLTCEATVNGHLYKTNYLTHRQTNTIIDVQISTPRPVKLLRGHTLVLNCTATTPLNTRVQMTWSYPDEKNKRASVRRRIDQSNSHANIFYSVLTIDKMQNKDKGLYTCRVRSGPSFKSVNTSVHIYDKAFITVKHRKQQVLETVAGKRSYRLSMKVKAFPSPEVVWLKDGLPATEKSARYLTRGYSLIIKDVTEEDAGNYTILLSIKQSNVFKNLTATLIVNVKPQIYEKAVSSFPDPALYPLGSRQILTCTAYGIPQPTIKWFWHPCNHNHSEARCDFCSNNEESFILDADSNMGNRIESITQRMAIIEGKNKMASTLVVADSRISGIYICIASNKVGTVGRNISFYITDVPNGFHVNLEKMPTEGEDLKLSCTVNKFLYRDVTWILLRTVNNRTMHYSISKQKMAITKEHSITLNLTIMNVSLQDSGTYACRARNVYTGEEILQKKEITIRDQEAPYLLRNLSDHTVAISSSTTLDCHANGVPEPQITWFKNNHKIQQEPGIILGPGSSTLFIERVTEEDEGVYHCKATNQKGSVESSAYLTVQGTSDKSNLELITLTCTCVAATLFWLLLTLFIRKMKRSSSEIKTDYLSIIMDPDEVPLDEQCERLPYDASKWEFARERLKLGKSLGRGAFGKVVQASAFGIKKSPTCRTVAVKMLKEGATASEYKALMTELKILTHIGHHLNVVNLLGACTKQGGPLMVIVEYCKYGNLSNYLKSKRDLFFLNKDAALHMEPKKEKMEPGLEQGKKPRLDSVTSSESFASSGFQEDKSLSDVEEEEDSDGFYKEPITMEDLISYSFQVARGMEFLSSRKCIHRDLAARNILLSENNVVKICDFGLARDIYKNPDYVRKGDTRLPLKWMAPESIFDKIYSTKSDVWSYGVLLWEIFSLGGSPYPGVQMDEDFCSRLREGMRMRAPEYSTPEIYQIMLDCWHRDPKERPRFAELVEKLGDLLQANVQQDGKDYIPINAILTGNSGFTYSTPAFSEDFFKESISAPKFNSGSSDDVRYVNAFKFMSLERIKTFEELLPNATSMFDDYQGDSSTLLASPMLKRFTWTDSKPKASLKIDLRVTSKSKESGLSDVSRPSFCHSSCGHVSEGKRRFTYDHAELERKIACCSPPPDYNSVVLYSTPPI
Description: as §1, §2

FLT4/VEGFR3 = FLT4/VEGFR3 (Homo sapiens, UniProt P35916); experiment: Kinase panel screening; assay type: biochemical; details: FLT4/VEGFR3, 10 μM
Description: as §1, §2

KDR/VEGFR2 = KDR/VEGFR2 (Homo sapiens, UniProt P35968); experiment: Kinase panel screening; assay type: biochemical; details: KDR/VEGFR2, 10 μM
Description: as §1, §2

ALK = ALK (Homo sapiens, UniProt Q9UM73); experiment: Kinase panel screening; assay type: biochemical
Description: as §1, §2

PDGFRb = PDGFRb (Homo sapiens, UniProt P09619); experiment: Kinase panel screening; assay type: biochemical
Description: as §1, §2

SYK = SYK (Homo sapiens, UniProt P43405); experiment: Kinase panel screening; assay type: biochemical
Description: as §1, §2

GSK3b = GSK3b (Homo sapiens, UniProt P49841); experiment: Kinase panel screening; assay type: biochemical
Description: as §1, §2

## CCN1CCN(Cc2ccc(NC(=O)Nc3ccc(C4=Nc5cscc5NC(=O)C4)cc3)cc2C(F)(F)F)CC1 [Example 43, 1-(4-((4-ethylpiperazine-1-yl)methyl)-3-(trifluoromethyl)phenyl)-3-(4-(2-oxo-2,3-dihydro-1H-thieno[3,4-b][1,4]diazepine-4-yl)phenyl)urea]
[1]; read-out: A375P (GI50)
  GI50: < 1000 nM
[1]; read-out: GI50 value against A375P
  GI50: 1450 nM
[1]; statement in words
  effects against A375P: significant effects
c-Src
  inhibition at 10 µM: 55.2%
FGFR2
  inhibition at 10 µM: 29.9%
PDGFRa
  inhibition at 10 µM: 85.9%
LYN
  inhibition at 10 µM: 89.4%
MEK1
  inhibition at 10 µM: 5.26%
IGF1R
  inhibition at 10 µM: 1.34%
FMS
  inhibition at 10 µM: 100%
FAK/PTK2
  inhibition at 10 µM: 41.2%
CDK2/cyclin E
  inhibition at 10 µM: 0.28%
c-Kit
  inhibition at 10 µM: 85.9%
FLT3
  inhibition at 10 µM: 98.9%
CDK1/cyclin B
  inhibition at 10 µM: 2.68%
c-MET
  inhibition at 10 µM: 21.7%
BRAF
  inhibition at 10 µM: 32%
AKT1
  inhibition at 10 µM: 3.23%
LCK
  inhibition at 10 µM: 79.3%
TIE2/TEK
  inhibition at 10 µM: 64.9%
EGFR
  inhibition at 10 µM: 24.8%
RET
  inhibition at 10 µM: 99.1%
FGFR1
  inhibition at 10 µM: 34.4%
BRAF (V599E)
  inhibition at 10 µM: 43.9%
ROS/ROS1
  inhibition at 10 µM: 3.71%
ERK1
  inhibition at 10 µM: 1.22%
P38a/MAPK14
  inhibition at 10 µM: 89.9%
RAF1
  inhibition at 10 µM: 86.2%
ITK
  inhibition at 10 µM: 20.7%
FGFR3
  inhibition at 10 µM: 45%
Aurora A
  inhibition at 10 µM: 20.4%
FLT1/VEGFR1
  inhibition at 10 µM: 79.1%
FLT4/VEGFR3
  inhibition at 10 µM: 95.8%
KDR/VEGFR2
  inhibition at 10 µM: 60.2%
ALK
  inhibition at 10 µM: 41%
PDGFRb
  inhibition at 10 µM: 96.1%
SYK
  inhibition at 10 µM: 57.4%
GSK3b
  inhibition at 10 µM: 8.62%
